Results on 23 compounds are retold here after ChEMBL document CHEMBL3120075 (J Med Chem, 2014).

Series [1] has as its system Hepatitis C virus. The experiment in a line: Antiviral activity against HCV genotype 1b Con1 infected in human HuH7 cells assessed as inhibition of viral RNA replication after 3 days by renilla luciferase reporter gene assay. It counts as functional, organism-based, Hepacivirus hominis. As to conditions: isolate Con1, Huh-7, 72 h. For orientation: A reporter such as luciferase makes a cellular process visible.

Series [2] deals with Hepatitis C virus. The experiment in a line: Antiviral activity against HCV genotype 1a H77 infected in human HuH7 cells assessed as inhibition of viral RNA replication after 3 days by renilla luciferase reporter gene assay. As to conditions: genotype 1a H77, Huh-7, 72 h. It counts as functional, organism-based, Hepacivirus hominis.
The nature of series [3]: Mean residence time in beagle dog at 0.2 mg/kg, iv. The class given is ADME, organism-based, Canis lupus familiaris. Also on record: dose 0.2 mg/kg, route intravenous. As to conditions: in vivo.
Series [4] is described as follows: Half life in beagle dog at 0.2 mg/kg, iv. The class given is ADME, organism-based, Canis lupus familiaris. Also on record: dose 0.2 mg/kg, route intravenous. As to conditions: in vivo.
A short description of series [5]: Volume of distribution at steady state in beagle dog at 0.2 mg/kg, iv. The note with it: in vivo, read-out: Vdss. Also on record: dose 0.2 mg/kg, route intravenous. The class given is ADME, organism-based, Canis lupus familiaris.
Series [6] in a line: Clearance in beagle dog at 0.2 mg/kg, iv. The class given is ADME, organism-based, Canis lupus familiaris. Also on record: dose 0.2 mg/kg, route intravenous. As to conditions: in vivo.
Series [7] is described as follows: Oral bioavailability in Sprague-Dawley rat at 2 mg/kg. The class given is ADME, organism-based. As to conditions: in vivo.
Series [8] in a line: Mean residence time in Sprague-Dawley rat at 1 mg/kg, iv. The class given is ADME, organism-based. Also on record: dose 1 mg/kg, route intravenous. As to conditions: in vivo.
A short description of series [9]: Half life in Sprague-Dawley rat at 1 mg/kg, iv. It counts as ADME, organism-based. The note with it: in vivo. The arrangement: dose 1 mg/kg, route intravenous.
Series [10] is described as follows: Volume of distribution at steady state in Sprague-Dawley rat at 1 mg/kg, iv. The note with it: in vivo, read-out: Vdss. The class given is ADME, organism-based. Also on record: dose 1 mg/kg, route intravenous.
Series [11] is described as follows: Clearance in Sprague-Dawley rat at 1 mg/kg, iv. The class given is ADME, organism-based. The arrangement: dose 1 mg/kg, route intravenous. As to conditions: in vivo.

As a reminder, the EC50 is the concentration at which the effect is half-maximal. Turning to `COC(=O)N[C@H](C(=O)N1CCC[C@H]1c1ncc(-c2ccc(C#Cc3ccc4nc([C@@H]5CCCN5C(=O)[C@@H](NC(=O)OC)C(C)C)[nH]c4c3)cc2)[nH]1)C(C)C`, the EC50 with Hepatitis C virus [1] was 0.011 nM; in the series on Hepatitis C virus [2], 0.38 nM.

In the case of `COC(=O)N[C@H](C(=O)N1CCC[C@H]1c1nc2ccc(-c3ccc(-c4ccc(-c5ccc6nc([C@@H]7CCCN7C(=O)[C@@H](NC(=O)OC)C(C)C)[nH]c6c5)cc4)cc3)cc2[nH]1)C(C)C`, the EC50 in the series with Hepatitis C virus [1] came out at 0.044 nM; in the series with Hepatitis C virus [2], 3.7 nM.

With `COC(=O)N[C@H](C(=O)N1CCC[C@H]1c1nc2ccc(-c3ccc(-c4ccc(-c5cnc([C@@H]6[C@H]7CC[C@H](C7)N6C(=O)[C@@H](NC(=O)OC)C(C)C)[nH]5)cc4)cc3)cc2[nH]1)C(C)C`, the EC50 is 0.021 nM with Hepatitis C virus [1] and 0.66 nM with Hepatitis C virus [2].

For the compound `C[C@H](NC(=O)c1ccc(Sc2ccc(N)cc2)c(Nc2ncnc3nc(C(C)(C)C)ccc23)c1)c1ccccc1`, the EC50 is 3 nM with Hepatitis C virus [1] and 46 nM in the series on Hepatitis C virus [2].

Regarding `COC(=O)N[C@H](C(=O)N1CCCC[C@H]1c1ncc(-c2ccc(-c3ccc(-c4cnc([C@@H]5CCCN5C(=O)[C@@H](NC(=O)OC)C(C)C)[nH]4)cc3)cc2)[nH]1)C(C)C`, the EC50 with Hepatitis C virus [1] is 0.005 nM; in the series on Hepatitis C virus [2] it was 0.45 nM.

The MRT is a mean duration of stay, worked out from the concentration-time curve. For orientation: half-life means the time needed for the level to fall by half in the phase considered. A higher half-life goes with slow loss. The term clearance denotes the volume of plasma or blood freed of the substance per unit of time. A low value points to inefficient removal. As a reminder, the bioavailability is the share of a dose that reaches the circulation, judged against a reference dose that is usually intravenous. Lower therefore signals little systemic uptake. In the case of `COC(=O)N[C@H](C(=O)N1CCC[C@H]1c1ncc(-c2ccc(-c3ccc(-c4ccc5nc([C@@H]6[C@H]7CC[C@H](C7)N6C(=O)[C@@H](NC(=O)OC)C(C)C)[nH]c5c4)cc3)cc2)[nH]1)C(C)C`, the MRT was 5.47 h in [3] and 2.42 h in [8]. Besides, the half-life was 4.01 h in [4] and 2.07 h in [9]. In addition, the results for the Vd in [5] and in series [10] were 2.03 L/kg and 1.81 L/kg, respectively. The values for the clearance in series [6] and in [11] were 6.67 mL/min/kg and 12.5 mL/min/kg, respectively. Moreover, the bioavailability in series [7] amounted to 26.3%. Also, the EC50 with Hepatitis C virus [1] amounted to 0.006 nM; in the series on Hepatitis C virus [2], 0.16 nM.

With `COC(=O)N[C@H](C(=O)N1CCC[C@H]1c1ncc(-c2ccc(-c3ccc(-c4ccc5nc([C@@H]6CCCN6C(=O)[C@@H](NC(=O)OC)C(C)C)[nH]c5c4)cc3)cc2)[nH]1)C(C)C`, the figures for the MRT in series [3] and in [8] were 3 h and 1.71 h, respectively. Also, the half-life in series [4] is 2.3 h; in [9] it was 1.57 h. Moreover, the Vd in [5] was determined as 2.31 L/kg; in [10] it was 1.76 L/kg. Further, the results for the clearance in [6] and in [11] were 13 mL/min/kg and 17.3 mL/min/kg, respectively. Further, the bioavailability in series [7] worked out at 11.5%. The EC50 was determined as 0.007 nM in the series with Hepatitis C virus [1] and 0.17 nM in the series with Hepatitis C virus [2].

With `CN(C)[C@@H](C(=O)N1CCC[C@H]1C(=O)Nc1ccc(/C=C/c2ccc(NC(=O)[C@@H]3CCCN3C(=O)[C@@H](c3ccccc3)N(C)C)cc2)cc1)c1ccccc1`, in the series with Hepatitis C virus [1], the EC50 was 0.1 nM.

Regarding `COC(=O)N[C@H](C(=O)N1CCC[C@H]1c1nc2ccc(-c3cc4cc5sc(-c6ccc7nc([C@@H]8CCCN8C(=O)[C@@H](NC(=O)OC)C(C)C)[nH]c7c6)cc5cc4s3)cc2[nH]1)C(C)C`, the results for the EC50 with Hepatitis C virus [1] and with Hepatitis C virus [2] were 0.016 nM and 0.2 nM, respectively.

In the case of `COC(=O)N[C@H](C(=O)N1CCC[C@H]1c1nc2ccc(-c3ccc4nc([C@@H]5CCCN5C(=O)[C@@H](NC(=O)OC)C(C)C)[nH]c4c3)cc2[nH]1)C(C)C`, the concentration for a half-maximal effect (EC50) was 35 nM with Hepatitis C virus [1] and over 44 nM in the series with Hepatitis C virus [2].

`COC(=O)N[C@H](C(=O)N1CCC[C@H]1c1ncc(-c2ccc(-c3ccc4nc([C@@H]5CCCN5C(=O)[C@@H](NC(=O)OC)C(C)C)[nH]c4c3)cc2)[nH]1)C(C)C`: the EC50 is 0.3 nM in the series on Hepatitis C virus [1] and over 44 nM with Hepatitis C virus [2].

Consider `COC(=O)N[C@H](C(=O)N1CCC[C@H]1c1ncc(-c2ccc3c(c2)C(=O)c2cc(-c4cnc([C@@H]5CCCN5C(=O)[C@@H](NC(=O)OC)C(C)C)[nH]4)ccc2-3)[nH]1)C(C)C`, for which the EC50 in the series with Hepatitis C virus [1] came out at 0.018 nM; in the series on Hepatitis C virus [2] it was 0.3 nM.

`COC(=O)N[C@H](C(=O)N1CCC[C@H]1c1nc2ccc(-c3ccc(-c4ccc5nc([C@@H]6CCCN6C(=O)[C@@H](NC(=O)OC)C(C)C)[nH]c5c4)s3)cc2[nH]1)C(C)C`: the figures for the EC50 in the series on Hepatitis C virus [1] and in the series on Hepatitis C virus [2] were 0.01 nM and 1.7 nM, respectively.

Consider `COC(=O)N[C@H](C(=O)N1CCC[C@H]1c1ncc(-c2ccc(-c3ccc(-c4cnc([C@@H]5[C@H]6CC[C@H](C6)N5C(=O)[C@@H](NC(=O)OC)C(C)C)[nH]4)cc3)cc2)[nH]1)C(C)C`, for which the MRT in [3] is 6.6 h; in series [8], 1.4 h. In addition, the half-life in series [4] is 5.29 h; in series [9], 1.49 h. The Vd came out at 0.31 L/kg in [5] and 0.98 L/kg in [10]. In addition, the results for the clearance in series [6] and in [11] were 0.833 mL/min/kg and 11.7 mL/min/kg, respectively. For the same compound, the bioavailability in series [7] stood at 35.2%. Besides, the EC50 in the series with Hepatitis C virus [1] stood at 0.009 nM; in the series on Hepatitis C virus [2] it was 0.21 nM.

In the case of `COC(=O)N[C@H](C(=O)N1CCC[C@H]1c1ncc(-c2ccc3c(c2)Cc2cc(-c4cnc([C@@H]5CCCN5C(=O)[C@@H](NC(=O)OC)C(C)C)[nH]4)ccc2-3)[nH]1)C(C)C`, the EC50 in the series with Hepatitis C virus [1] was 0.013 nM; in the series with Hepatitis C virus [2], 0.094 nM.

Consider `COC(=O)N[C@H](C(=O)N1CCC[C@H]1c1nc(-c2ccc3cc(-c4ccc5[nH]c([C@@H]6CCCN6C(=O)[C@@H](NC(=O)OC)C(C)C)nc5c4)ccc3c2)c[nH]1)C(C)C`, for which the EC50 is 0.007 nM with Hepatitis C virus [1] and 0.071 nM in the series on Hepatitis C virus [2].

`COC(=O)N[C@H](C(=O)N1CCC[C@H]1c1nc2ccc(-c3ccc(-c4ccc5nc([C@@H]6CCCN6C(=O)[C@@H](NC(=O)OC)C(C)C)[nH]c5c4)cc3)cc2[nH]1)C(C)C`: the EC50 with Hepatitis C virus [1] was 0.009 nM; in the series with Hepatitis C virus [2], 0.5 nM.

For `COC(=O)N[C@H](C(=O)N1CCC[C@H]1c1ncc(-c2ccc(-c3ccc(-c4ccc5nc([C@@H]6CCCN6C(=O)[C@@H](NC(=O)OC)C(C)C)[nH]c5c4)s3)cc2)[nH]1)C(C)C`, the EC50 with Hepatitis C virus [1] was 0.003 nM; in the series with Hepatitis C virus [2] it was 0.2 nM.

On to `COC(=O)N[C@H](C(=O)N1CCC[C@H]1c1nc2ccc(-c3ccc4cc(-c5ccc6nc([C@@H]7CCCN7C(=O)[C@@H](NC(=O)OC)C(C)C)[nH]c6c5)ccc4c3)cc2[nH]1)C(C)C`, for which the concentration giving a half-maximal response (EC50) in the series on Hepatitis C virus [1] was 0.004 nM; with Hepatitis C virus [2] it was 0.11 nM.

With `COC(=O)N[C@H](C(=O)N1CCC[C@H]1c1nc2ccc(C#Cc3ccc4nc([C@@H]5CCCN5C(=O)[C@@H](NC(=O)OC)C(C)C)[nH]c4c3)cc2[nH]1)C(C)C`, the EC50 with Hepatitis C virus [1] is 0.14 nM; in the series on Hepatitis C virus [2] it was over 44 nM.

As for `COC(=O)N[C@H](C(=O)N1CCC[C@H]1c1nc2ccc(C#CC#Cc3ccc4nc([C@@H]5CCCN5C(=O)[C@@H](NC(=O)OC)C(C)C)[nH]c4c3)cc2[nH]1)C(C)C`, the EC50 in the series on Hepatitis C virus [1] was 0.026 nM; with Hepatitis C virus [2], 11 nM.

In the case of `COC(=O)N[C@H](C(=O)N1CCC[C@H]1c1ncc(C#Cc2ccc(-c3ccc4nc([C@@H]5CCCN5C(=O)[C@@H](NC(=O)OC)C(C)C)[nH]c4c3)cc2)[nH]1)C(C)C`, the EC50 in the series on Hepatitis C virus [1] is 0.016 nM; in the series on Hepatitis C virus [2], 2.5 nM.

As to `COC(=O)N[C@H](C(=O)N1CCC[C@H]1c1ncc(-c2ccc3c(c2)C(C)(C)c2cc(-c4cnc([C@@H]5CCCN5C(=O)[C@@H](NC(=O)OC)C(C)C)[nH]4)ccc2-3)[nH]1)C(C)C`, the 50% effective concentration (EC50) in the series with Hepatitis C virus [1] was found to be 0.014 nM; in the series on Hepatitis C virus [2], 1.2 nM.
